This is an account of results in ChEMBL document CHEMBL1201862, “PubChem BioAssay data set” (2004).

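Five compound concentrations were applied to cells in 96-well plates for 48 hours; endpoints were derived by simple linear interpolation of the resulting dose-response curve. Here, GI50 denotes the concentration required for 50% inhibition of growth.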 Active and inactive are the calls of the source. No stated cut-off is given here; in the data, active = GI50 up to about 1.1 µM and inactive = higher.

Some test systems named below: A498; A549; CAKI-1; CCRF-CEM; EKVX; HCC 2998; HCT-116; HL-60; IGROV-1; K562; KM12; MDA-MB-231; MOLT-4; NCI-H23; OVCAR-5; PC-3; SF-295; SK-MEL-5; SNB-75; SF-268.
What all share (experiment): NCI anticancer screen, dose series, 48 h

In the case of `O=C(NNCC(O)COc1ccccc1)c1ccccc1` (stereo not given), the GI50 with A498, in the test on A549, in the test on CAKI-1, in the test on CCRF-CEM, in the test on EKVX and in the test with HCC 2998 was > 100 µM (inactive) in each case. For the same molecule, the GI50 in the test with HCT-116, in the test on HL-60, in the test on IGROV-1, in the test with K562, in the test with KM12 and with MDA-MB-231 was > 100 µM (inactive) in each case. The GI50 was > 100 µM (inactive) in the test with MOLT-4; > 100 µM (inactive) in the test on NCI-H23; > 100 µM (inactive) with OVCAR-5; > 100 µM (inactive) in the test on PC-3; > 100 µM (inactive) with SF-295; 42 µM (inactive) in the test on SK-MEL-5. Also, in the test on SNB-75, the GI50 is > 100 µM (inactive).
Regarding `Nc1ccccc1C(=O)NC(=O)Nc1ccc(Oc2ncc(Br)cn2)c(Cl)c1`, the GI50 with A498 was < 0.01 µM (active); in the test on A549, < 0.01 µM (active); in the test with CAKI-1, < 0.01 µM (active); in the test on EKVX it was 0.247 µM (active); in the test with HCC 2998, 0.0116 µM (active); with HCT-116 it was < 0.01 µM (active). In addition, the GI50 in the test with HL-60 is < 0.01 µM (active); in the test on IGROV-1, < 0.0118 µM (active); in the test on K562, < 0.01 µM (active); in the test on KM12, < 0.01 µM (active); in the test with MDA-MB-231 it was 0.0145 µM (active); in the test on MOLT-4 it was < 0.01 µM (active). The GI50 was 0.0108 µM (active) in the test with NCI-H23; 0.438 µM (active) in the test on OVCAR-5; < 0.01 µM (active) in the test with PC-3; < 0.01 µM (active) in the test with SF-268; < 0.01 µM (active) with SF-295; < 0.01 µM (active) in the test on SK-MEL-5. For the same molecule, the GI50 in the test on SNB-75 is < 0.01 µM (active).
As to `O=C1NC2c3c(I)sc(I)c3C(O)C2O1` (stereo not given), the GI50 in the test with A498 is > 100 µM (inactive); in the test on A549, > 100 µM (inactive); in the test on CAKI-1, > 100 µM (inactive); with CCRF-CEM it was 52.8 µM (inactive); with EKVX, > 100 µM (inactive); in the test with HCC 2998 it was > 100 µM (inactive). Besides, the GI50 in the test with HCT-116, in the test on HL-60, with IGROV-1, with K562, with KM12 and in the test on MDA-MB-231 was > 100 µM (inactive) in each case. Moreover, the GI50 in the test with MOLT-4, in the test on NCI-H23, in the test on OVCAR-5, with PC-3, with SF-268 and in the test on SF-295 was > 100 µM (inactive) in each case. In addition, in the test with SNB-75, the GI50 was > 100 µM (inactive).
With `COP(=O)(OC)/C(=C\c1cn(C(c2ccccc2)(c2ccccc2)c2ccccc2)cn1)NC(C)=O`, the GI50 in the test with A498 is > 100 µM (inactive); in the test with A549, 53.7 µM (inactive); in the test on CAKI-1, > 100 µM (inactive); with CCRF-CEM it was 77.1 µM (inactive); with EKVX, > 100 µM (inactive); with HCC 2998, > 100 µM (inactive). Also, the GI50 with HCT-116 was 58.5 µM (inactive); in the test with HL-60, 53.8 µM (inactive); in the test with IGROV-1, > 100 µM (inactive); with K562, 51.8 µM (inactive); in the test with KM12, 52.4 µM (inactive); in the test with MDA-MB-231, > 100 µM (inactive). Also, the GI50 in the test on MOLT-4 was 34.4 µM (inactive); with NCI-H23, > 100 µM (inactive); in the test with OVCAR-5 it was > 100 µM (inactive); in the test with PC-3 it was > 100 µM (inactive); with SF-268, > 100 µM (inactive); with SF-295, > 100 µM (inactive). The GI50 in the test with SNB-75 is > 100 µM (inactive).
Turning to `CCCNc1ncnc2c1ncn2C`, the GI50 with A498 is 22.9 µM (inactive); in the test with A549, > 100 µM (inactive); with CAKI-1, 36.1 µM (inactive); with CCRF-CEM, 22.1 µM (inactive); with EKVX, > 100 µM (inactive); in the test on HCC 2998, 78.7 µM (inactive). Moreover, the GI50 in the test on HCT-116 was > 100 µM (inactive); with HL-60, 32.9 µM (inactive); in the test with IGROV-1, 54.7 µM (inactive); in the test with K562, 53.1 µM (inactive); with KM12, > 100 µM (inactive); in the test on MDA-MB-231, 67.1 µM (inactive). Besides, the GI50 in the test on MOLT-4 was 45.3 µM (inactive); in the test with NCI-H23, 35.6 µM (inactive); in the test with PC-3, > 100 µM (inactive); in the test with SF-295, 40.6 µM (inactive); in the test on SK-MEL-5 it was > 100 µM (inactive); in the test on SNB-75 it was 38.5 µM (inactive).
In the case of `COC(=O)c1ccccc1C#CCCCOS(C)(=O)=O`, the GI50 in the test on A498, in the test on A549, in the test on CAKI-1, with CCRF-CEM, in the test on EKVX and in the test with HCC 2998 was > 10 µM (inactive) in each case. Also, the GI50 in the test with HCT-116, in the test with HL-60, in the test with IGROV-1, with K562, in the test on KM12 and with MDA-MB-231 was > 10 µM (inactive) throughout. The GI50 with MOLT-4, in the test on NCI-H23, in the test with OVCAR-5, in the test on PC-3, with SF-268 and in the test with SF-295 was > 10 µM (inactive) in each case. Moreover, in the test with SK-MEL-5, the GI50 was > 10 µM (inactive).
In the case of `O=C1c2ccccc2CC12Cc1ccc3c(c1C2=O)CCCC3` (stereo not given), the GI50 was 23.7 µM (inactive) in the test on A498; 8.05 µM (inactive) in the test on A549; 49 µM (inactive) in the test with CCRF-CEM; > 100 µM (inactive) in the test on EKVX; > 100 µM (inactive) in the test with HCC 2998; 3.57 µM (inactive) in the test with HCT-116. Besides, the GI50 with HL-60 is 16.8 µM (inactive); in the test on IGROV-1, 4.71 µM (inactive); in the test with K562, 21.6 µM (inactive); with KM12, 41.4 µM (inactive); in the test on MDA-MB-231, 0.948 µM (active); with MOLT-4, 4.35 µM (inactive). For the same molecule, the GI50 was > 100 µM (inactive) in the test on OVCAR-5; 66.7 µM (inactive) with PC-3; > 100 µM (inactive) with SF-268; 5.96 µM (inactive) in the test on SF-295; 6.19 µM (inactive) with SK-MEL-5; 6.52 µM (inactive) with SNB-75.
Turning to `CC(=O)Nc1ccc(OC/C(N)=N/NC(=O)c2ccncc2)cc1`, the GI50 in the test with A498, with A549, with CAKI-1, in the test on CCRF-CEM, with EKVX and in the test on HCC 2998 was > 100 µM (inactive) each time. Further, the GI50 in the test on HCT-116, in the test with HL-60, in the test with IGROV-1, with K562, in the test on KM12 and in the test on MDA-MB-231 was > 100 µM (inactive) each time. Further, the GI50 with MOLT-4, with NCI-H23, in the test on OVCAR-5, in the test with PC-3, in the test with SF-268 and in the test with SF-295 was > 100 µM (inactive) in each case. The GI50 in the test on SNB-75 was 29.1 µM (inactive).
